Earlier results as cited in US20090220611A1, “Microparticles With Modified Release of At Least One Active Principle and Oral Pharmaceutical Form Comprising Same” (priority 2005, published 2009).

Conditions: qualitative statement

## Nc1nc2c(ncn2COCCO)c(=O)[nH]1 [aciclovir]
  water solubility: sparingly water-soluble
